Source: patent publication US10125111B2, “Benzofuran compounds for the treatment of hepatitis C” (BRISTOL-MYERS SQUIBB COMPANY, priority 2015, dated 2018)

What was measured:
HCV = conditions: cited from earlier work
[1] = system: genotype 1b (Con-1) HCV replicon; test: HCV Replicon Luciferase Assay; format: cell-based; conditions: Hepatitis C virus, 72 h; Huh-7 genotype 1b replicon, Renilla luciferase, 3 days incubation; read-out: EC50 1b (class)
Experimental: The cell lines used to evaluate compounds consist of a human hepatocyte derived cell line (Huh-7) that constitutively expresses a genotype 1b (Con-1) HCV replicon or a genotype 1b (Con-1) HCV replicon with an asparagine replacing the cysteine at amino acid 316, or a genotype 2a (JFH-1) replicon, containing a Renilla luciferase reporter gene. These cells were maintained in Dulbecco's modified Eagle medium (DMEM) containing 10% FBS, 100 U/mL penicillin/streptomycin and 1.0 mg/mL G418.
To evaluate compound efficacy, titrated compounds were transferred to sterile 384-well tissue culture treated plates, and the plates were seeded with HCV replicon cells (50 μL at a density of 2.4×10^3 cells/well) in DMEM containing 4% FBS (final DMSO concentration at 0.5%). After 3 days incubation at 37° C., cells were analyzed for Renilla Luciferase activity using the EnduRen substrate (Promega cat #E6485) according to the manufacturer's directions. Briefly, the EnduRen substrate was diluted in DMEM and then added to the plates to a final concentration of 7.5 μM. The plates were incubated for at least 1 h at 37° C. then read on a Viewlux Imager (PerkinElmer) using a luminescence program. The 50% effective concentration (EC50) was calculated using the four-parameter logistic Formula noted above.
Compound EC50 data is expressed as A: <100 nM; B=100-1000 nM; C>1000 nM).

Q: Which “sustained efficacy, patients” value (HCV; combination therapy, patients) does the source give for alpha-interferon and ribavirin here?
A: The value was 40%.

Q: For CNC(=O)c1c(-c2ccc(F)cc2)oc2cc(N(CCO)S(C)(=O)=O)c(C3CC3)cc12 [HCV-796], which “toxicity during extended dosing” value (HCV; combination regimens with interferon and ribavirin) is on record?
A: The value was “hepatic toxicity”.

Q: For CNC(=O)c1c(-c2ccc(F)cc2)oc2cc(N(CCCF)S(C)(=O)=O)c(-c3cccc(C(=O)NC(C)(C)CF)c3)cc12 [Compound 4008], which EC50 [1] is on record?
A: Its EC50 is under 0.1 µM.
